Entries after “also recorded” stand apart in the source; their conditions may differ.
Legend:
[1] = system: NRAS mutant melanoma cell line; experiment: Viability of NRAS mutant melanoma versus BRAF-V600E and wild-type lines; format: cell-based
Protocol: Compounds were screened in nine-point dose response using a three-fold dilution. Cells were seeded into 384-well plates 24 hours prior to compound addition. Cells were then incubated with compound for 72 hours or 120 hours before assaying viability (CellTiter-Glo, Promega). Assays were performed in biological triplicate. […] Mean viability is equivalent to the area under the log-dose/viability curve divided by the total number of tested doses.

A549 cells [2] = experiment: Clonogenic (colony growth) assay; format: cell-based
Protocol: (§1) Cells were plated in duplicate in 6-well plates at 10,000 cells/well, allowed to attach overnight and treated for 8 days with the indicated compounds. Media with appropriate compounds was replenished every 72 hours. At 8 days cells were rinsed once with PBS, fixed and stained with crystal violet solution (Sigma Aldrich, HT90132) for 20 minutes and washed with water.

[3] = system: 322 cell lines (pancreas, lung, colorectal, skin, ovary and blood); experiment: 322 cell line screen, AZ-628 and cobimetinib single agents and co-dilution; format: cell-based
Protocol: (§2) Compounds were screened in nine-point dose response using a three-fold dilution. Cells were seeded into 384-well plates 24 hours prior to compound addition. Cells were then incubated with compound for 72 hours or 120 hours before assaying viability (CellTiter-Glo, Promega). Assays were performed in biological triplicate. Cells were incubated (37° C., 5% CO2) in RPMI-1640, 2.5% FBS (72 hour assay) or 5% FBS (120 hour assay), and 2 mM glutamine throughout the assay. The reported IC50 and mean viability metrics are as follows: IC50 is the dose at which the estimated inhibition is 50% relative to untreated wells (i.e., absolute IC50). Mean viability is equivalent to the area under the log-dose/viability curve divided by the total number of tested doses.
(§3) For combination synergy studies, cells were plated in 384-well plates (Corning) and treated with varying concentrations of compound, either alone or in combination for 72 hours. Cell viability was determined using CellTiter-Glo Luminescent Cell Viability Assay (Promega, G7573). Synergistic effects were determined using the Bliss independence analysis methods (Greco et al. Pharmacol. Rev. 47: 331-385, 1995; Chou and Talalay. Adv. Enzyme Regul. 22:27-55, 1984; Chou. Cancer Res. 70: 440-446, 2010; Bliss. Ann. Appl. Biol. 25: 31, 1939).

A549 cells [4] = experiment: Apoptosis: cleaved PARP Western blot and Annexin V/propidium iodide flow cytometry; format: cell-based; details: AZ-628 combined with cobimetinib; 48 hours; FIG. 2D-2E
Protocol: (§4) Cells lysed in lysis buffer (0.5% NP40, 20 mM Tris, pH 7.5, 137 mM NaCl, 10% glycerol, 1 mM EDTA) plus protease inhibitor mixture-complete mini (Roche Applied Science, 11836170001) and phosphatase inhibitor mix (Thermo, 78426). Lysates were centrifuged at 15,000 rpm for 10 minutes and the protein concentration determined using BCA (Thermo, 23227). Equal amounts of protein were subjected to SDS-PAGE NuPAGE 4-12% Bis-Tris Gel (Novex, WG-1403) and transferred to nitrocellulose membrane (BioRad, 170-4159). After blocking in blocking buffer (Li-Cor, 927-40000), membranes were incubated with the indicated primary antibodies and analyzed either by the addition of secondary antibodies IRDye 680LT Goat anti-Mouse IgG (H+L) (Li-Cor, 926-68050) or IRDye 800CW goat anti-Rabbit IgG (H+L) (Li-Cor, 926-32211). The membranes were visualized on the LiCor Odyssey CLx Scanner.

DUSP6 and SPRY4 = experiment: RNA sequencing of MAPK transcriptional targets; format: cell-based; details: 0.1 μM AZ-628 combined with cobimetinib; six hours; four KRAS mutant lung cancer cell lines; FIG. 2C
Protocol: Cells were seeded overnight and treated with AZ-628 and cobimetinib either singly (0.1 μM) or in combination (0.1 μM each) for 6 hours. Control cells were treated with DMSO (0.2% final concentration). Total RNA was extracted as per manufacturer's protocol using RNEasy mini kits with on-column DNAse digestion (Qiagen #74106 and #79254). Quality control of samples was done to determine RNA quantity and quality prior to their processing by RNA-seq. The concentration of RNA samples was determined using NanoDrop 8000 (Thermo Scientific) and the integrity of RNA was determined by Fragment Analyzer (Advanced Analytical Technologies). 0.5 μg of total RNA was used as an input material for library preparation using TruSeq RNA Sample Preparation Kit v2 (Illumina). Size of the libraries was confirmed using 2200 TapeStation and High Sensitivity D1000 screen tape (Agilent Technologies) and their concentration was determined by qPCR based method using Library quantification kit (KAPA). The libraries were multiplexed and then sequenced on Illumina HiSeq2500 (Illumina) to generate 30M of single-end 50 base pair reads.
Reads were mapped to the hg19 genome using RefSeq gene models with the aligner GSNAP. […] Significance for linear model terms was determined by moderated t-tests as implemented in the limma software.

[5] = system: panel of 213 tumor cell lines; experiment: 213 cell line panel, co-diluted combinations with pictilisib; format: cell-based; details: 3 days, FIG. 7A
Protocol: as §2, §3

pMEK, pERK, pRSK, pAKT = experiment: Immunoblot of pathway markers after compound treatment; format: cell-based; details: A549
Protocol: as §4

[6] = system: NCI-H2122 lung xenograft tumor; experiment: NCI-H2122 lung xenograft tumor model
Protocol: The formulations were mixed well by vortexing before dosing. Test articles were stored in a refrigerator set to maintain a temperature range of 4° C.-7° C.
Only animals that appeared to be healthy and that were free of obvious abnormalities were used for each study. Tumor volumes were determined using digital calipers (Fred V. Fowler Company, Inc.) using the formula (L×W×W)/2. […] Mice were weighed twice a week using a standard scale.

SW48 isogenic cell line = experiment: SW48 isogenic KRAS knock-in cells, crystal violet and pERK Western blot; format: cell-based; details: AZ-628 starting at 0.1 μM, cobimetinib 250 nM; FIGS. 6F-6G
Protocol: as §1, §4

With `Cc1ccc(NC(=O)c2cccc(C(C)(C)C#N)c2)cc1Nc1ccc2ncn(C)c(=O)c2c1` [AZ-628] the “effect on mean viability, NRAS mutant vs BRAF-V600E” value ([1]; FIG. 8A) was “approximately equivalent effects on mean viability”, the “cell viability and 1050, NRAS mutant vs BRAF-V600E” value ([1]; separate study, FIGS. 8C and 8D) was “had an equivalent effect in NRAS mutant and BRAF-V600E mutant cell lines” and the “single-agent effect on cell growth” value (A549 cells [2]; 8-day clonogenic, 50-100 nM cobimetinib, 100 nM AZ-628) was “had little effect on cell growth on their own”. For the same molecule, the “synergy with cobimetinib in colony formation” value (A549 cells [2]; 8 days, crystal violet, FIG. 2F, 5E) was “marked synergy”, the “association of combination sensitivity with KRAS-G13D” value ([3]; AZ-628 and cobimetinib, FIGS. 6A-6C) was “significant association between sensitivity to the RAF plus MEK inhibitor combination and presence of the G13D mutation; also recorded: KRAS-G13D mutant cell lines are more sensitive to the combination of RAF and MEK inhibition” and the “synergy score (positive Bliss excess) with cobimetinib by genotype” value ([3]; co-dilution with cobimetinib, 3 days, FIG. 5A) was “Significantly higher synergy scores were observed in KRAS and NRAS mutant cell lines compared to either BRAF-V600 mutants or wild-type; also recorded: greater synergy in RAS mutant (G12/G13/Q61) cell lines, and a subset of RAS/RAF wild-type cell lines relative to BRAF-V600 cell lines”. The induction of apoptosis (A549 cells [4]) was “significant induction of cell apoptosis; also recorded: increased cleaved PARP”, the “downregulation of DUSP6 and SPRY4” value (DUSP6 and SPRY4) was “downregulation of these genes was more profound than expected if the effect of combining the two single agents was merely additive” and the “synergy (positive Bliss excess) with pictilisib” value [5] was “large general increased synergy in the AZ-628/pictilisib combination compared to the cobimetinib/pictilisib combination; also recorded: synergizes with pan-PI3K inhibitor, pictilisib (GDC-0941)”. The “pMEK accumulation and signaling to ERK” value (pMEK, pERK, pRSK, pAKT; AZ-628 combined with pictilisib, 24 hours, FIG. 7G) was “prevent the accumulation of pMEK and abrogate downstream signaling to ERK”, the pAKT levels (pMEK, pERK, pRSK, pAKT; AZ-628 in combination with cobimetinib, FIG. 2B) was “little observed impact on pAKT levels” and the “MAPK pathway output (pMEK, pERK, pRSK)” value (pMEK, pERK, pRSK, pAKT; RAF inhibitor 0.1-10 μM with or without fixed dose cobimetinib, 24 hours, FIG. 2B) was “only in combination with cobimetinib effectively inhibited MAPK pathway output”. For the same molecule, the “tumor growth, combination with cobimetinib” value ([6]; NCI-H2122, AZ-628+GDC-0973, FIG. 3A) was “robust combination effect”, the “tolerability / body weight” value ([6]; NCI-H2122 xenograft mice, combination with cobimetinib, FIG. 3B) was “well tolerated in the mice, resulting in little or minimal changes in body weight post-treatment” and the “synergy with cobimetinib by KRAS knock-in” value (SW48 isogenic cell line) was “displayed greater synergy than KRAS-G12D and KRAS-G12C knock-in cells; also recorded: greater in KRAS-G13D mutant SW48 cells compared to KRAS-G12D or KRAS-G12C mutant SW48 cells”.
